The source of these data is patent US20250127937A1, “FAP INHIBITOR” (UNIVERSITÄT HEIDELBERG, priority 2018, published 2025).

Each structure is given as a SMILES string. Some results are limits rather than exact numbers.

Series [1] in a line: Preliminary dosimetry estimate in patients. In kind it is in vivo, human.
Series [2] relates to tumor lesions and normal tissue of cancer patients. The series can be described thus: Clinical PET/CT imaging in cancer patients (SUV). The format is in vivo, human. Here is the method: Diagnostic imaging of more than 100 patients was performed under the conditions of the updated declaration of Helsinki, § 37 (Unproven interventions in clinical practice) and in accordance to the German Pharmaceuticals Law § 13 (2b) for medical reasons using either ^68Ga-FAPI-02 or -04, which was applied intravenously (20 nmol, 122-336 MBq), 10 min, 1 and 3 hours post tracer administration. Variation of injected radiotracer activity is due to the short half-life of ^68Ga and the variable elution efficiencies obtained during the lifetime of the ^68Ge/^68Ga generator. […] The PET/CT scans were performed with a Biograph mCT Flow™ PET/CT-Scanner (Siemens Medical Solution) using the following parameters: slice thickness of 5 mm, increment of 3-4 mm, soft-tissue reconstruction kernel, care dose. Immediately after CT scanning, a whole-body PET was acquired in 3D (matrix 200×200) in FlowMotion™ with 0.7 cm/min. The emission data were corrected for random, scatter and decay. Reconstruction was conducted with an ordered subset expectation maximisation (OSEM) algorithm with 2 iterations/21 subsets and Gauss-filtered to a transaxial resolution of 5 mm at full-width half-maximum (FWHM). Attenuation correction was performed using the low-dose non-enhanced CT data. The quantitative assessment of standardized uptake values (SUV) was done using a region of interest technique.
For the normal tissue of 16 organs, a 2 cm Spheric-VOI was placed in the parenchyma, for tumor lesions a threshold segmented VOI was used to quantify SUVmean/max^3.

The target in series [3] is human FAP-α (Homo sapiens (Human), UniProt Q12884). The series can be described thus: Competitive binding of radiolabeled compound to HT-1080-FAP cells against unlabeled compound. Conditions: radiolabeled FAPI-01 (I-125) / FAPI-02 (Lu-177), HT-1080-FAP cells, 60 min; read-out: IC50 human FAP-α. Here is the method:
Competition experiments were performed by simultaneous exposure to unlabeled (10^−5 M to 10^−9M) and radiolabeled compound for 60 min. […] For internalization experiments, surface bound activity was removed by incubating the cells with 1 M glycine-HCl buffer for 10 min. The radioactivity was measured using a γ-counter, normalized to 1 mio cells and calculated as percentage of applied dose (% ID).
The medium was replaced by 1 mL fresh medium without fetal calf serum. […] Competition experiments were performed by simultaneous exposure to unlabeled (10^−5 M to 10^−9 M) and radiolabeled compound for 60 min. […] In all experiments, the cells were washed with 1 mL phosphate-buffered saline pH 7.4 for 2 times and subsequently lysed with 1.4 ml lysis buffer (0.3 M NaOH, 0.2% SDS). Radioactivity was determined in a γ-counter (Cobra II, Packard), normalized to 1 mio cells and calculated as percentage of the applied dose (% ID). Each experiment was performed 3 times, and 3 repetitions per independent experiment were acquired.

Series [4] deals with HT-1080-FAP cells. Nature of the series: Radioligand binding and internalization in HT-1080-FAP cells. In kind it is cell-based, human. Here is the method:
Radioligand binding studies were performed using HT-1080-FAP cells. The radiolabeled compound was added to the cell culture and incubated for different time intervals ranging from 10 min to 24 h. Competition experiments were performed by simultaneous exposure to unlabeled (10^−5 M to 10^−9M) and radiolabeled compound for 60 min. For efflux experiments, radioactive medium was removed after incubation for 60 min and replaced by non-radioactive medium for time intervals ranging from 1 to 24 h. For internalization experiments, surface bound activity was removed by incubating the cells with 1 M glycine-HCl buffer for 10 min. The radioactivity was measured using a γ-counter, normalized to 1 mio cells and calculated as percentage of applied dose (% ID).
For radioligand binding studies, cells were seeded in 6-well plates and cultivated for 48 h to a final confluence of approx. 80-90% (1.2-2 mio cells/well). The medium was replaced by 1 mL fresh medium without fetal calf serum. The radiolabeled compound was added to the cell culture and incubated for different time intervals ranging from 10 min to 24 h. Competition experiments were performed by simultaneous exposure to unlabeled (10^−5 M to 10^−9 M) and radiolabeled compound for 60 min. For efflux experiments, radioactive medium was removed after incubation for 60 min and replaced by non-radioactive medium for time intervals ranging from 1 to 24 h. In all experiments, the cells were washed with 1 mL phosphate-buffered saline pH 7.4 for 2 times and subsequently lysed with 1.4 ml lysis buffer (0.3 M NaOH, 0.2% SDS). Radioactivity was determined in a γ-counter (Cobra II, Packard), normalized to 1 mio cells and calculated as percentage of the applied dose (% ID). Each experiment was performed 3 times, and 3 repetitions per independent experiment were acquired.
For internalization experiments the cells were incubated with the radiolabeled compound for 60 min at 37° C. and 4° C. Cellular uptake was terminated by removing medium from the cells and washing 2 times with 1 mL PBS. Subsequently, cells were incubated with 1 mL of glycine-HCl (1 Min PBS, pH 2.2) for 10 min at room temperature to remove the surface bound activity. The cells were washed with 2 mL of ice-cold PBS and lysed with 1.4 mL of lysis buffer to determine the internalized fraction. For the cells incubated at 4° C., all washing and elution steps were carried out using ice-cold buffers. The radioactivity was measured using a γ-counter, normalized to 1 mio cells and calculated as percentage of applied dose (% ID).

Setting [5] is: 1 h p.i., intra-individual comparison of 6 patients.

The IC50 is the concentration at which inhibition is half-maximal.

Chain of human FAP-α (Q12884 whole entry): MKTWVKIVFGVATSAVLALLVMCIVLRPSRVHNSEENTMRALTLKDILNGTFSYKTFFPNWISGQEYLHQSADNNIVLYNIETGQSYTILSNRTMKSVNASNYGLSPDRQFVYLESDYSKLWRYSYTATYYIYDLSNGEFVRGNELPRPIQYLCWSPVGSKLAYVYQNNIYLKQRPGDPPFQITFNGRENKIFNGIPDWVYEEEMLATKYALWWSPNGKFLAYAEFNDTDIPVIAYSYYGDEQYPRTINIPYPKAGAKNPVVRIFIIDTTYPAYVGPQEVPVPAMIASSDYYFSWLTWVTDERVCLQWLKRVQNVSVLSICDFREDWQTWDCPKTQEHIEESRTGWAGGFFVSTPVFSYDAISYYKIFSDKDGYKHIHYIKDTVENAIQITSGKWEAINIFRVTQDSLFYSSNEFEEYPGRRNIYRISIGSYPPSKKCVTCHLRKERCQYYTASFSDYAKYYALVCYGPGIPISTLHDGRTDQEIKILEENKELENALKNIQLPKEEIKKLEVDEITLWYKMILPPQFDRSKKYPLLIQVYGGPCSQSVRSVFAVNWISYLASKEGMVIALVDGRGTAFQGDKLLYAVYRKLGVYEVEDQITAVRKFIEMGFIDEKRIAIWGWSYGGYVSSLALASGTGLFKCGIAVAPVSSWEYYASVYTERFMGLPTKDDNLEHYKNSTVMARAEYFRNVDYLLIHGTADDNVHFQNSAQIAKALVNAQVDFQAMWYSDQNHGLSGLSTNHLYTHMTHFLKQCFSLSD

Take `N#C[C@@H]1CCCN1C(=O)CNC(=O)c1ccnc2ccc(OCCCN3CCN(C(=O)CN4CCN(CC(=O)O)CCN(CC(=O)O)CCN(CC(=O)O)CC4)CC3)cc12` [FAPI-02]: the “equivalent dose of an exam” value in series [1] (200 MBq Ga-68) is given as 3-4 mSv. Moreover, in series [1] (calculated with IDAC1/ICRP60), the effective dose is recorded as 1.82E-02 mSv/MBq. Besides, the effective dose in series [1] (calculated with IDAC2/ICRP103) was 1.79E-02 mSv/MBq. The effective dose in series [1] (calculated with OLINDA) is recorded as 1.80E-02 mSv/MBq. The “maximum SUV values in primary tumor, lymph node and bone metastases” value in series [2] (68Ga labeled, 1 h after i.v. administration, patients) is given as not above 48.0. Also, in series [2] (setting [5]), the “background uptake in brain” value turned out to be 0.32; the “background uptake in liver” value turned out to be 1.69; the “background uptake in oral/pharyngeal mucosa” value was found to be 2.57; the “tumor uptake, average SUV max” value stood at 7.37. The “decrease of tumor uptake (washout)” value in series [2] (from 1 h to 3 h p.i., patients) was found to be 75%. Moreover, the IC50 in series [3] is 21 nM. In addition, in series [4] (24 h incubation, FAPI-01 compared to binding after 10 min), the “activity remaining after 24 h of incubation relative to initial radioactivity” value amounted to 34%. Also, in series [4] (Lu-177 labeled, after 60 min), the “internalized proportion of uptake” value was found to be 96% and the “uptake into FAP-α expressing cells” value was found to be 20.15±1.74 % ID.
